The source of these data is patent US11679112B2, “Cancer treatments using combinations of CDK and ERK inhibitors” (BIOMED VALLEY DISCOVERIES, INC., priority 2013, dated 2023).

Assay [1] has as its system A549 cells. As to the kind of experiment: Single agent proliferation assay, CellTiter-Glo, A549. The format is cell-based. Particulars: Homo sapiens; for IC50: 72 h, read-out: Relative IC50. The protocol: (§1) Cells were seeded in 96-well plates at the densities indicated in Table 4 in RPMI containing 10% FBS and allowed to adhere overnight prior to addition of compound or vehicle control. Compounds were prepared from DMSO stocks to give the desired final concentrations. The final DMSO concentration was constant at 0.1%. Test compounds were incubated with the cells for 72 h at 37° C., 5% CO2 in a humidified atmosphere. CellTiter-Glo® reagent (Promega, Madison, Wis.) was added according to manufacturer's instructions and luminescence detected using the BMG FLUOstar plate reader (BMG Labtech, Ortenberg, Germany). A duplicate set of assay plates was incubated with 10 μg/ml Hoechst 33342 stain (Invitrogen, Grant Island, N.Y.) in complete growth medium for 1 h at 37° C., 5% CO2 in a humidified atmosphere. The medium was then removed and replaced with PBS and fluorescence detected using a BMG FLUOstar Omega plate reader (BMG labtech, Ortenberg, Germany). The average media only background value was deducted and the data analysed using a 4-parameter logistic equation in GraphPad Prism (GraphPad Software, La Jolla, Calif.).
(§2) The effects of BVD-523, the CDK4/6 inhibitors, another ERK inhibitor (SCH772984), and a reference MEK inhibitor (Trametinib), as single agents on cell viability was assessed after 72 h using two methods (FIGS. 2A-2L). The first method was by quantitating cellular ATP levels using CellTiter-Glo® (Promega, Madison, Wis.). The second method was by quantitating total amount of DNA in an assay well after staining the DNA with Hoechst stain.

The subject of assay [2] is A549 cells. As to the kind of experiment: Single agent proliferation assay, Hoechst stain, A549. The format is cell-based. Conditions: Homo sapiens, 72 h, read-out: Relative IC50. As to the method: as §1, §2
Assay [3] relates to H2122 cells. As to the kind of experiment: Single agent proliferation assay, CellTiter-Glo, H2122. The format is cell-based. Conditions: Homo sapiens; for IC50: NCI-H2122, 72 h, read-out: Relative IC50. As to the method:
as §1, §2

In assay [4] the test system is H2122 cells. As to the kind of experiment: Single agent proliferation assay, Hoechst stain, H2122. The format is cell-based. Particulars: Homo sapiens, NCI-H2122, 72 h, read-out: Relative IC50. The protocol: as §1, §2
Assay [5] deals with H1437 cells. As to the kind of experiment: Single agent proliferation assay, CellTiter-Glo, H1437. The class given is cell-based. Conditions: Homo sapiens; for IC50: NCI-H1437, 72 h, read-out: Relative IC50; for inhibition at 3 µM: NCI-H1437, @3 μM. The protocol:
as §1, §2

The test system of assay [6] is H1437 cells. As to the kind of experiment: Single agent proliferation assay, Hoechst stain, H1437. The class given is cell-based. Conditions: Homo sapiens; for IC50: NCI-H1437, 72 h, read-out: Relative IC50. As to the method:
as §1, §2

The subject of assay [7] is H226 cells. As to the kind of experiment: Single agent proliferation assay, CellTiter-Glo, H226. The format is cell-based. Particulars: Homo sapiens; for inhibition at 10 µM: NCI-H226, @10 μM; for inhibition at 3 µM: NCI-H226, @3 μM. As to the method:
as §1, §2

Assay [8] concerns H226 cells. As to the kind of experiment: Single agent proliferation assay, Hoechst stain, H226. Particulars: Homo sapiens; for IC50: NCI-H226, 72 h, read-out: Relative IC50. The class given is cell-based. As to the method: as §1, §2
In assay [9] the test system is MAPK signaling components in A375 cells. As to the kind of experiment: Western blot of MAPK, cell cycle and apoptosis signaling in A375 cells. The class given is cell-based, human. The protocol:
(§3) For Western blot studies, HCT116 cells (5×10^6) were seeded into 10 cm dishes in McCoy's 5A plus 10% FBS. A375 cells (2.5×10^6) were seeded into 10 cm dishes in DMEM plus 10% FBS. Cells were allowed to adhere overnight prior to addition of the indicated amount of test compound (BVD-523) or vehicle control. Cells were treated for either 4 or 24 hours before isolation of whole-cell protein lysates, as specified below. Cells were harvested by trypsinisation, pelleted and snap frozen. Lysates were prepared with RIPA (Radio-Immunoprecipitation Assay) buffer, clarified by centrifugation and quantitated by bicinchoninic acid assay (BCA) assay. 20-50 μg of protein was resolved by SDS-PAGE electrophoresis, blotted onto PVDF membrane and probed using the antibodies detailed in Table 2 (for the 4-hour treatment) and Table 3 (for the 24-hour treatment) below.

For assay [10], the system named is MAPK signaling in HCT-116 cells. As to the kind of experiment: Western blot of MAPK signaling in HCT116 cells. The class given is cell-based, human. Conditions: HCT116, 4 hours, micromolar concentrations. As to the method: as §3
For another assay, the system named is ERK. Particulars: Morris et al., 2013; cited from earlier work.
[11] abbreviates: read-out: Maximal percentage inhibition.

Turning to `CC(C)Nc1cc(-c2c[nH]c(C(=O)N[C@H](CO)c3cccc(Cl)c3)c2)c(Cl)cn1` [BVD-523], the IC50 was 730 nM in the assay with A549 cells [1]; 590 nM in the assay on A549 cells [2]; 450 nM in the assay on H2122 cells [3]; 450 nM in the assay on H2122 cells [4]; 1200 nM with H1437 cells [5]; 1400 nM with H1437 cells [6]. Further, the inhibition at 10 µM with H226 cells [7] (setting [11]) was 34%; in the assay on H226 cells [8] (NCI-H226, @10 μM, read-out: Maximal percentage inhibition) it was 58%. Also, the cyclin-D1 level entry in assay [9] (24 hours) is listed as “greatly reduced”. Moreover, the “phosphorylation of ERK-dependent residues (T359/S363) in RSK 1 and 2 proteins” value in assay [9] (A375, 4 hours, micromolar concentrations) is “reduced”; in [10], “reduced”. The Bim-EL level entry in [9] (A375, prolonged treatment) is given as “increased”. Besides, the “increased apoptosis (PARP cleavage)” value in assay [9] (A375, prolonged treatment) was “not observed”. Moreover, the “MAPK feedback phosphatase DUSP6 level” value in assay [9] (BRAF mutant cell line, 24 hours) is “greatly reduced”. Besides, in assay [9] (RAF and RAS mutant cancer cells, acute and prolonged treatment), the “concentrations required to induce changes in substrate phosphorylation and effector targets of ERK” value is “low micromolar range”. In addition, the “effect on autophosphorylation of ERK” value in assay [9] (see FIG. 1) was “allows for the autophosphorylation of ERK while still inhibiting ERK”.
As for `O=C(Nc1ccc2[nH]nc(-c3ccncc3)c2c1)[C@@H]1CCN(CC(=O)N2CCN(c3ccc(-c4ncccn4)cc3)CC2)C1` [SCH772984], the IC50 worked out at 1100 nM with A549 cells [1], 740 nM with A549 cells [2], 630 nM in the assay with H2122 cells [3] and 530 nM in the assay with H2122 cells [4]. The inhibition at 3 µM amounted to 57% in the assay with H1437 cells [5] (setting [11]); 63% with H1437 cells [6] (NCI-H1437, @3 μM, read-out: Maximal percentage inhibition); 35% with H226 cells [7] (setting [11]); 49% in the assay on H226 cells [8] (NCI-H226, @3 μM, read-out: Maximal percentage inhibition). The “effect on autophosphorylation of ERK” value in the assay with ERK is listed as “inhibits autophosphorylation of ERK”.
`CC(=O)Nc1cccc(-n2c(=O)n(C3CC3)c(=O)c3c(Nc4ccc(I)cc4F)n(C)c(=O)c(C)c32)c1` [Trametinib]: the IC50 in the assay with A549 cells [1] amounted to 5 nM; in the assay with A549 cells [2], 5 nM; in the assay on H2122 cells [3], 3 nM; in the assay with H2122 cells [4], 3 nM; in the assay with H1437 cells [5], 2 nM; in the assay on H1437 cells [6], 3 nM. Also, in the assay on H226 cells [8], the half-inhibitory concentration (IC50) turned out to be 2 nM. The inhibition at 1 µM in the assay on H226 cells [7] (NCI-H226, @1 μM, read-out: Maximal percentage inhibition) turned out to be 57%.
Consider `CN(C)C(=O)c1cc2cnc(Nc3ccc(N4CCNCC4)cn3)nc2n1C1CCCC1` [LEE-011], for which the inhibition at 10 µM in the assay with A549 cells [1] (@10 μM, read-out: Maximal percentage inhibition) was 49%; with H2122 cells [3] (NCI-H2122, @10 μM, read-out: Maximal percentage inhibition), 44%; with H1437 cells [5] (NCI-H1437, @10 μM, read-out: Maximal percentage inhibition), 30%; in the assay on H226 cells [7] (setting [11]), 32%. The IC50 in the assay with A549 cells [2] came to 700 nM; in the assay with H2122 cells [4], 450 nM; in the assay on H1437 cells [6] it was 2800 nM; with H226 cells [8], 370 nM.
With `CC(=O)c1c(C)c2cnc(Nc3ccc(N4CCNCC4)cn3)nc2n(C2CCCC2)c1=O` [Palbociclib], the inhibition at 3 µM with A549 cells [1] (@3 μM, read-out: Maximal percentage inhibition) was 41%; in the assay with H2122 cells [3] (NCI-H2122, @3 μM, read-out: Maximal percentage inhibition), 48%; with H1437 cells [5] (setting [11]) it was 29%; in the assay on H226 cells [7] (setting [11]), 20%. Also, the IC50 in the assay on A549 cells [2] was determined as 130 nM; in the assay on H2122 cells [4], 150 nM; with H1437 cells [6] it was 220 nM; in the assay with H226 cells [8], 56 nM.
On to `CC(=O)O[C@H]1C(=O)[C@@]2(C)[C@H]([C@H](OC(=O)c3ccccc3)[C@]3(O)C[C@H](OC(=O)[C@H](O)[C@@H](NC(=O)c4ccccc4)c4ccccc4)C(C)=C1C3(C)C)[C@]1(OC(C)=O)CO[C@@H]1C[C@@H]2O` [Paclitaxcel, Paclitaxel], for which the IC50 in the assay with A549 cells [1] amounted to 3 nM; with A549 cells [2] it was 2 nM; with H2122 cells [3], 3 nM; in the assay on H2122 cells [4], 2 nM; with H1437 cells [5], 7 nM; with H1437 cells [6], 3 nM. Also, the IC50 with H226 cells [7] (NCI-H226, 72 h, read-out: Relative IC50) turned out to be 3 nM; with H226 cells [8], 3 nM.
